Reference: US20260152494A1, “CDK2 INHIBITORS AND METHODS OF USING THE SAME” (Cedilla Therapeutics, Inc., priority 2022, published 2026)

Tests used:
CDK2/Cyclin E1 [1] = molecular target: T1, CDK2/Cyclin E1 (Homo sapiens, UniProt P24941); assay: ADPGLO (CDK2/E1-37C) ADP-Glo Luminescent Kinase Assay; type: biochemical; settings: 0.18 nM CDK2/Cyclin E1, 100 μM ATP, 1.5 μM Histone H1, 37° C., 60 min preincubation
T1 construct: purchased Eurofins 14-475
Procedure: Example A2: ADPGLO (CDK2/E1-37C)
Inhibition of CDK2/Cyclin E1 activity by the presence of small molecules was evaluated using ADP-Glo Luminescent Kinase Assay (Promega). Activated CDK2/Cyclin E1 was incubated with its substrate Histone H1 (SignalChem H10-54N) in the kinase reaction buffer (100 μM ATP, 50 mM HEPES pH 7.5, 10 mM MgCl2, 1 mM EDTA, 2 mM DTT, 0.01% Brij35, 0.5 mg/mL BSA). Luminescence was recorded with an Envision plate reader (PerkinElmer).
Dose titrations of inhibitors in 100% DMSO were combined with 0.36 nM CDK2/Cyclin E1 in reaction buffer. The mixtures were incubated for 60 minutes at 37° C. before the addition of ATP and Histone H1 substrate to initiate the kinase reaction. The final conditions were 0.18 nM CDK2/Cyclin E1, 100 μM ATP, and 1.5 μM Histone H1. The reactions were incubated at 37° C. for 90 minutes before being stopped with the addition of ADP-Glo reagent. This mixture was incubated at room temperature for 60 minutes before Kinase Detection Solution is added to generate luminescence. The stopped reactions were analyzed on an Envision plate reader. The conversion ratios were normalized to yield % activity, plotted against compound concentration, and fit to a four-parameter equation to determine the IC50 for each compound.

[2] = test system: Kuramochi cells labeled with mApple-H2B; assay: IncuCyte cell proliferation assay; type: cell-based; settings: Kuramochi RB-WT cells, 72 hours, cell count normalized to DMSO
Procedure: Example A3: IncuCyte® Cell Proliferation Assay
IncuCyte® assay was used to measure the effect of disclosed compounds on cell proliferation. Fluorescent microscopy images of cells were taken immediately after compound treatment and 72 hours later. Image analysis software was used to obtain cell counts as a function of compound concentration. Kuramochi cells labeled with mApple-H2B were seeded on 384-well assay-ready plates. Plates were placed in an IncuCyte® (Sartorius) and scanned at 0 and 72 hours. IncuCyte® software was used to count the number of fluorescent nuclei in each well. The fold change in cell count from 0 to 72 hours in wells treated with increasing compounds concentrations (10 pts, 1/2 log dilution, 20 μM top concentration) was normalized to DMSO control wells. The normalized cell counts were fit with dose response curves and a GI50 was calculated.

CDK2/Cyclin E1 [3] = molecular target: T1, CDK2/Cyclin E1; assay: CDK2/Cyclin E1 Caliper LabChip EZ Reader mobility shift assay; type: biochemical; settings: 2.5 nM CDK2/Cyclin E1, 100 μM ATP, 1.5 μM fluorescent peptide, 30 min preincubation; read-out: Caliper Assay (CDK2/CCNE1): IC50
Procedure: Example A1: CDK2/Cyclin E1 Caliper Assay
Inhibition of CDK2/Cyclin E1 activity in the presence of compounds of the present disclosure was evaluated using a Caliper LabChip® EZ Reader mobility shift assay. In the assay, CDK2/Cyclin E1 (Eurofins, 14-475) catalyzed the phosphorylation of a fluorescently tagged peptide 5-FAM-QSPKKG-CONH2 (PerkinElmer, FL Peptide 18) which induced a difference in capillary electrophoresis mobility. The peptide substrate and product were measured, and the conversion ratio was used to determine the inhibition (as % activity and IC50 values) of CDK2/Cyclin E1. Reactions contained 50 mM HEPES pH 7.5, 10 mM MgCl2, 1 mM EDTA, 2 mM DTT, 0.01% Brij35, 0.5 mg/mL BSA, 0.1% DMSO, 2.5 nM CDK2/Cyclin E1, 100 μM ATP, and 1.5 μM fluorescent peptide substrate.
Dose titrations of inhibitors in 100% DMSO were combined with 3.25 nM CDK2/Cyclin E1 and 130 μM of ATP in reaction buffer. The mixtures were incubated for 30 minutes before the addition of fluorescent peptide substrate to initiate the kinase reaction. The final conditions were 2.5 nM CDK2/Cyclin E1, 100 μM ATP, and 1.5 μM fluorescent peptide. The reactions were stopped after 100 minutes with the addition of EDTA (400 mM final EDTA concentration). The stopped reactions were analyzed on a Caliper LabChip® EZ Reader II. The conversion ratios were normalized to yield % activity, plotted against compound concentration, and fit to a four-parameter equation to determine the IC50 for each compound.

Row | SMILES | IC50 (CDK2/Cyclin E1 [1]) [µM] | IC50 [2] [µM] | IC50 (CDK2/Cyclin E1 [3]) [µM]
1 | C[C@@H](OCC1CCCCC1)[C@H](NC(=O)[C@H]1CN(C(=O)c2cncs2)CC12CCOCC2)C(=O)N1CCC(c2ccc(C(=O)O)cc2)CC1 (single isomer, unassigned) [I-4 1st, 4-(1-(O-(cyclohexylmethyl)-N-(2-(thiazole-5-carbonyl)-8-oxa-2-azaspiro[4.5]decane-4-carbonyl)-L-threonyl)piperidin-4-yl)benzoic acid] | > 10 | > 20 | –
2 | C[C@@H](OCC1CCCCC1)[C@H](NC(=O)[C@@H]1CN(C(=O)c2cncs2)CC12CCOCC2)C(=O)N1CCC(c2ccc(C(=O)O)cc2)CC1 (single isomer, unassigned) [I-4 2nd, 4-(1-(O-(cyclohexylmethyl)-N-(2-(thiazole-5-carbonyl)-8-oxa-2-azaspiro[4.5]decane-4-carbonyl)-L-threonyl)piperidin-4-yl)benzoic acid] | > 10 | > 20 | –
3 | C[C@@H](OCC1CCCCC1)[C@H](NC(=O)[C@@H]1CN(Cc2cnn(Cc3ccccc3)c2)C(=O)C12CN(C(=O)[C@H]1CC1(C)C)C2)C(=O)N1CCC(c2nccs2)CC1 [Compound I-5, (S)-6-((1-benzyl-1H-pyrazol-4-yl)methyl)-N-((2S,3R)-3-(cyclohexylmethoxy)-1-oxo-1-(4-(thiazol-2-yl)piperidin-1-yl)butan-2-yl)-2-((S)-2,2-dimethylcyclopropane-1-carbonyl)-5-oxo-2,6-diazaspiro[3.4]octane-8-carboxamide] | ≤ 0.5 | ≤ 0.5 | –
4 | CC1(C)C[C@@H]1C(=O)N1CC2(C1)C(=O)N(Cc1cncs1)CC2c1nnc(C(F)(F)c2ccc(Cl)c(Cl)c2)o1 (stereo partly drawn) [Compound I-6, 8-(5-((3,4-dichlorophenyl)difluoromethyl)-1,3,4-oxadiazol-2-yl)-2-((S)-2,2-dimethylcyclopropane-1-carbonyl)-6-(thiazol-5-ylmethyl)-2,6-diazaspiro[3.4]octan-5-one] | > 100 | > 20 | > 10
5 | C[C@@H](OCC1CCCCC1)[C@H](NC(=O)C1CN(C(=O)c2cncs2)CC12CCN(C(=O)[C@H]1CC1(C)C)CC2)C(=O)N1CCC(c2ccc(C(=O)O)cc2)CC1 (stereo partly drawn) [Compound I-41, 4-(1-(O-(cyclohexylmethyl)-N-(8-((S)-2,2-dimethylcyclopropane-1-carbonyl)-2-(thiazole-5-carbonyl)-2,8-diazaspiro[4.5]decane-4-carbonyl)-L-threonyl)piperidin-4-yl)benzoic acid] | ≤ 0.5 | > 20 | –
